pIC50: −log10 of the molar value.

One assay deals with MV-4-11. Description: Oncology cell growth assay MV-4-11 (CellTiter Glo, 72 hours). Format: cell-based. Conditions: Homo sapiens, MV4-11, 72 h; MV-4-11 cell growth inhibitory activity, 3d. The text has this:
(§1) Published bromodomain inhibitors JQ1 and iBET 151 have shown activity in variety of cancer cells such leukemia and lymphoma, multiple myeloma cells, NUT midline carcinoma and glioblastoma cells (Dawson M A et al. 2011; Delmore J E 2011; Chen Z et al. 2013; Filippakopoulos P et al. 2010; Mertz J A et al. 2011; Ott C J et al. 2012). In this study, we test compounds in different cancer cell lines. MV-4-11 and MOLM-13 are AML cell lines harboring a MLL-AF4 and MLL-AF9 translocation, respectively. MM.1S is a multiple myeloma cell line. SK-N-AS, IMR-32 and SK-N-BE(2) are neuroblastoma cell lines. IMR-32 and SK-N-BE(2) cell lines harbor MYCN amplifications. MV-4-11, MM.1S, IMR-32, SK-N-AS and SK-N-BE(2) were obtained from ATCC (IL, USA) and MOLM-13 were purchased from DSMZ (Braunschweig, German). Cells are cultured as recommended by their sources. For growth inhibition studies 3000 cells are seeded in wells of a 96-well plate in 75 μL of culture media. After several hours, growth media containing compounds of formula (I) are added to the wells. Compound at a maximal concentration of 5 mM was serially diluted 1:3 for a total of 8 point titration with DMSO as a control. A 1 μL aliquot of each dilution point is added to 249 μL growth media and 75 μL is added to each well containing cells, providing 10 μM compound at the maximum concentration point. The final concentration of DMSO in all wells is 0.2%. Cells are incubated for 72 hours, and 25 μL of CellTiter Glo Reagent (Promega Ga., USA) is added to each well. Plates are shaken for approximately 10 minutes and chemiluminescent signal is read on Tecan microplate reader. The measured luminescence correlates directly with cell number.
(§2) All data is normalized to the mean of eight DMSO high control wells on each plate. A four parameter curve fit of the following formula was then applied: Y=a+(b−a)/(1+(x/c)^d) Where ‘a’ is the minimum, ‘b’ is the maximum, ‘c’ is the pIC50 and ‘d’ is the Hill slope. […] Myc Reporter Assay
The following table provides data indicating the BRD4 biochemical inhibitory activity and MV-4-11 cell growth inhibitory activity for exemplary compounds as described herein.
Take `CCn1cc(-c2cn(S(=O)(=O)c3ccccc3)c3cc(-c4c(C)noc4C)cnc23)cn1` [P-0124, 4-[1-(benzenesulfonyl)-3-(1-ethylpyrazol-4-yl)pyrrolo[3,2-b]pyridin-6-yl]-3,5-dimethyl-isoxazole]: the half-inhibitory concentration (IC50) was ≤ 1 µM.

With `Cc1noc(C)c1-c1cnc2c(-c3cnn(C(F)F)c3)cn(S(=O)(=O)C3CCCC3)c2c1` [P-0133, 4-[1-cyclopentylsulfonyl-3-[1-(difluoromethyl)pyrazol-4-yl]pyrrolo [3,2-b]pyridin-6-yl]-3,5-dimethyl-isoxazole], the IC50 is ≤ 1 µM.

In the next assay the test system is bromodomain. Kind of assay: Bromodomain cell assays of Example 40 (at least one of them). The format is cell-based. Conditions: in at least one of the bromodomain cell assays described in Example 40.
Source text: as §1, §2
In MV-4-11 cells, BRD2, BRD3 and BRD4 bind to the promoter region of MYC and regulate its transcription (Dawson M A et al. 2011). The literature bromodomain inhibitor iBET 151 could disrupt BRD4 recruitment to the MYC promoter and subsequently downregulate c-myc transcription (Dawson M A et al. 2011). Myc protein is a transcription factor that heterodimerizes with an obligatory partner Max and regulates the transcription of genes important for cell proliferation, differentiation, and apoptosis. This Myc reporter assay is used to monitor the inhibitory effect of compound of formula (I) on Myc dependent gene expression. Effective compounds could have potential therapeutic effects in Myc-driven tumors.
The MV-4-11 Myc reporter cell line is established by infecting MV-4-11 with VSV-g pseudotyped lentivirus expressing the firefly luciferase gene under the control of a minimal (m) CMV promoter and tandem repeats of the E-box transcriptional response element (TRE) (Qiagen IL, USA) and selecting cells in […] Puromycin.
The MV-4-11 Myc reporter cell line is maintained in Iscove's Modified Dulbecco's Medium containing 10% FBS, 1% PenStep and 2.5 μg/ml Puromycin. Cells are incubated at 37° C. in a humidified atmosphere with 5% CO2. 25,000 cells are seeded in 96-well plate in 50 μL of culture media. After several hours, growth media containing 2× compounds are added to the wells. Compound at a maximal concentration of 5 mM is serially diluted 1:3 for a total of 8 point titration. A 1 μl aliquot of each dilution point is added to 249 μl growth media and 50 μl is added to each well containing cells, providing 10 μM compound at the maximum concentration point. DMSO treated cells serve as a high control and 10 μM JQ1 treated cells serve as a low control. Cells are incubated for a further 24 hours and 25 μL of CellTiter-Fluo Reagent (Promega Ga., USA) is added to each well. Plates are shaken for approximately 2 minutes and incubated at 37° C. for 0.5 hour. […]
Take `CCc1[nH]c2ncc(-c3c(C)noc3C)cc2c1CC1CCC(F)(F)CC1` [P-0051, 4-[3-[(4,4-difluorocyclohexyl)methyl]-2-ethyl-1H-pyrrolo[2,3-b]pyridin-5-yl]-3,5-dimethyl-isoxazole]: the pIC50 was > 5.00. Still for that read-out and setting: to `Cc1noc(C)c1-c1cnc2ccn(S(=O)(=O)N3CCCCC3)c2c1` [P-0067, 3,5-dimethyl-4-[1-(1-piperidylsulfonyl)pyrrolo [3,2-b]pyridin-6-yl] isoxazole] belongs > 5.00; to `Cc1noc(C)c1-c1cnc2c(c1)c(C(O)C1CCC(F)(F)CC1)cn2C` (stereo not shown) [P-0101, (4,4-difluorocyclohexyl)-[5-(3,5-dimethylisoxazol-4-yl)-1-methyl-pyrrolo[2,3-b]pyridin-3-yl]methanol], > 5.00; to `Cc1noc(C)c1-c1cnc2c(I)c(C(F)(F)F)[nH]c2c1` [P-0225, 4-[3-iodo-2-(trifluoromethyl)-1H-pyrrolo[3,2-b]pyridin-6-yl]-3,5-dimethyl-isoxazole], > 5.00.

On to `Cc1noc(C)c1-c1ccc2c(-c3cnn(C)c3)cn(Cc3ccccc3F)c2c1` [P-0226, 4-[1-[(2-fluorophenyl)methyl]-3-(1-methylpyrazol-4-yl)indol-6-yl]-3,5-dimethyl-isoxazole], for which the pIC50 is > 5.00. As for `Cc1noc(C)c1-c1ccc2c(-c3cnn(C)c3)cn(Cc3ccccc3Cl)c2c1` [P-0227, 4-[1-[(2-chlorophenyl)methyl]-3-(1-methylpyrazol-4-yl)indol-6-yl]-3,5-dimethyl-isoxazole], the pIC50 was > 5.00. The same measure, in the same setting: to `Cc1noc(C)c1-c1ccc2c(-c3cnn(C)c3)cn(Cc3ccccc3C(F)(F)F)c2c1` [P-0228, 3,5-dimethyl-4-[3-(1-methylpyrazol-4-yl)-1-[[2-(trifluoromethyl)phenyl]methyl]indol-6-yl]isoxazole] belongs > 5.00; to `Cc1noc(C)c1-c1ccc2c(-c3cnn(C)c3)cn(Cc3c(F)cccc3F)c2c1` [P-0229, 4-[1-[(2,6-difluorophenyl)methyl]-3-(1-methylpyrazol-4-yl)indol-6-yl]-3,5-dimethyl-isoxazole], > 5.00.

Regarding `Cc1noc(C)c1-c1ccc2c(-c3cnn(C)c3)cn(C(C)c3ccccc3)c2c1` (stereo not shown) [P-0232, 3,5-dimethyl-4-[3-(1-methylpyrazol-4-yl)-1-(1-phenylethyl)indol-6-yl]isoxazole], the pIC50 is > 5.00. On to `[2H]C([2H])(F)C(c1ccccc1)n1cc(-c2cnn(C)c2)c2ncc(-c3c(C)noc3C)cc21` (stereo not shown) [P-0233, 4-[1-(2,2-dideuterio-2-fluoro-1-phenyl-ethyl)-3-(1-methylpyrazol-4-yl)pyrrolo[3,2-b]pyridin-6-yl]-3,5-dimethyl-isoxazole], for which the negative logarithm of the IC50 (pIC50) was > 5.00. As for `Cc1noc(C)c1-c1cnc2c(I)cn(CC3(F)CCCCC3)c2c1` [P-0234, 4-[1-[(1-fluorocyclohexyl)methyl]-3-iodo-pyrrolo[3,2-b]pyridin-6-yl]-3,5-dimethyl-isoxazole], the pIC50 was > 5.00. On the same count and under the same terms, the figure for `Cc1noc(C)c1-c1cnc2c(-c3cnn(C(F)F)c3)cn(CC3(F)CCCCC3)c2c1` [P-0235, 4-[3-[1-(difluoromethyl)pyrazol-4-yl]-1-[(1-fluorocyclohexyl)methyl]pyrrolo[3,2-b]pyridin-6-yl]-3,5-dimethyl-isoxazole] is > 5.00; for `Cc1noc(C)c1-c1cnc2c(-c3cnn(C4CC4)c3)cn(CC3(F)CCCCC3)c2c1` [P-0236, 4-[3-(1-cyclopropylpyrazol-4-yl)-1-[(1-fluorocyclohexyl)methyl]pyrrolo[3,2-b]pyridin-6-yl]-3,5-dimethyl-isoxazole] it is > 5.00. Still for that read-out and setting: the figure for `Cc1noc(C)c1-c1cnc2c(-c3cnn(CC(F)(F)F)c3)cn(CC3(F)CCCCC3)c2c1` [P-0237, 4-[1-[(1-fluorocyclohexyl)methyl]-3-[1-(2,2,2-trifluoroethyl)pyrazol-4-yl]pyrrolo[3,2-b]pyridin-6-yl]-3,5-dimethyl-isoxazole] is > 5.00. On to `COCCn1cc(-c2cn(CC3(F)CCCCC3)c3cc(-c4c(C)noc4C)cnc23)cn1` [P-0238, 4-[1-[(1-fluorocyclohexyl)methyl]-3-[1-(2-methoxyethyl)pyrazol-4-yl]pyrrolo[3,2-b]pyridin-6-yl]-3,5-dimethyl-isoxazole], for which the pIC50 is > 5.00. Turning to `Cc1noc(C)c1-c1cnc2c(-c3cn[nH]c3)cn(CC3(F)CCCCC3)c2c1` [P-0239, 4-[1-[(1-fluorocyclohexyl)methyl]-3-(1H-pyrazol-4-yl)pyrrolo[3,2-b]pyridin-6-yl]-3,5-dimethyl-isoxazole], the pIC50 was > 5.00. Same read-out and setting: to `Cc1noc(C)c1-c1cnc2c(I)cn(CC3(F)CCC4(CC3)OCCO4)c2c1` [P-0240, 4-[1-[(8-fluoro-1,4-dioxaspiro[4.5]decan-8-yl)methyl]-3-iodo-pyrrolo[3,2-b]pyridin-6-yl]-3,5-dimethyl-isoxazole] belongs > 5.00. Still for that read-out and setting: to `Cc1noc(C)c1-c1cnc2c(-c3cnn(C(F)F)c3)cn(CC3(F)CCC4(CC3)OCCO4)c2c1` [P-0241, 4-[3-[1-(difluoromethyl)pyrazol-4-yl]-1-[(8-fluoro-1,4-dioxaspiro[4.5]decan-8-yl)methyl]pyrrolo[3,2-b]pyridin-6-yl]-3,5-dimethyl-isoxazole] belongs > 5.00.

In the case of `Cc1noc(C)c1-c1cnc2c(-c3cnn(C(F)F)c3)cn(CC3(F)CCC(=O)CC3)c2c1` [P-0242, 4-[[3-[1-(difluoromethyl)pyrazol-4-yl]-6-(3,5-dimethylisoxazol-4-yl)pyrrolo[3,2-b]pyridin-1-yl]methyl]-4-fluoro-cyclohexanone], the pIC50 was > 5.00. Take `Cc1noc(C)c1-c1cnc2c(-c3cnn(C(F)F)c3)cn(CC3(F)CCC(F)(F)CC3)c2c1` [P-0243, 4-[3-[1-(difluoromethyl)pyrazol-4-yl]-1-[(1,4,4-trifluorocyclohexyl)methyl]pyrrolo[3,2-b]pyridin-6-yl]-3,5-dimethyl-isoxazole]: the negative logarithm of the IC50 (pIC50) is > 5.00. Still for that read-out and setting: the figure for `Cc1noc(C)c1-c1cnc2c(-c3cnn(C(F)F)c3)cn(CC3(F)CC=C(F)CC3)c2c1` (stereo not shown) [P-0244, 4-[1-[(1,4-difluorocyclohex-3-en-1-yl)methyl]-3-[1-(difluoromethyl)pyrazol-4-yl]pyrrolo[3,2-b]pyridin-6-yl]-3,5-dimethyl-isoxazole] is > 5.00; for `Cc1noc(C)c1-c1cnc2c(I)c(C(F)(F)F)n(C(C)c3ccccc3)c2c1` (stereo not shown) [P-0245, 4-[3-iodo-1-(1-phenylethyl)-2-(trifluoromethyl)pyrrolo[3,2-b]pyridin-6-yl]-3,5-dimethyl-isoxazole] it is > 5.00; for `Cc1noc(C)c1-c1cnc2[nH]ccc2c1` [P-0246, 3,5-dimethyl-4-(1H-pyrrolo[2,3-b]pyridin-5-yl)isoxazole] it is > 5.00.

The values are drawn from US10501460B2, “Heterocyclic compounds and uses thereof” (Plexxikon Inc., priority 2013, dated 2019).
